Structures are written as SMILES.

The values that follow come from ChEMBL document CHEMBL1142514, “Improved synthesis of 6-epi-dictyostatin and antitumor efficacy in mice bearing MDA-MB231 human breast cancer xenografts” (2008).

Holding throughout (type): functional
Experiment [1] concerns MDA-MB-231. Nature of the experiment: Antitumor activity against human MDA-MB-231 cells xenografted in CB17 SCID mouse assessed as two tumor doubling time administered at 20 mg/kg, iv q7d in 3 schedule.
For experiment [2], the system named is MDA-MB-231. Nature of the experiment: Antitumor activity against human MDA-MB-231 cells xenografted in CB17 SCID mouse assessed as one tumor doubling time administered at 20 mg/kg, iv q7d in 3 schedule. In general terms: Xenograft models place foreign cells or tissue in a host animal.
Experiment [3] has as its system MDA-MB-231. Nature of the experiment: Antitumor activity against human MDA-MB-231 cells xenografted in CB17 SCID mouse assessed as ratio of median tumor volume for drug to control administered at 20 mg/kg, iv q7d in 3 schedule after 14 days.
Experiment [4] deals with MDA-MB-231. Nature of the experiment: Antitumor activity against human MDA-MB-231 cells xenografted in CB17 SCID mouse assessed as ratio of median tumor volume for drug to vehicle administered at 20 mg/kg, iv q7d in 3 schedule after 17 days.

As to `CC(=O)O[C@H]1C(=O)[C@@]2(C)[C@H]([C@H](OC(=O)c3ccccc3)[C@]3(O)C[C@H](OC(=O)[C@H](O)[C@@H](NC(=O)c4ccccc4)c4ccccc4)C(C)=C1C3(C)C)[C@]1(OC(C)=O)CO[C@@H]1C[C@@H]2O` [PACLITAXEL], the results for the Activity in the experiment with MDA-MB-231 [1], in the experiment with MDA-MB-231 [2] and in the experiment on MDA-MB-231 [4] were 19 days, 7.9 days and 31%, respectively. Also, in the experiment on MDA-MB-231 [3], the T/C turned out to be 33%.

Usually T/C stands for the result in the treated group divided by that in the control group, in per cent.
